Measurements as given in patent publication US20220401465A1, “USES OF NAD+ AND/OR NAD+ INHIBITORS AND/OR NAD+ AGONISTS AND COMBINATION PREPARATION THEREOF” (ShanghaiTech University, priority 2019, published 2022).

Tests used:
[1] = system: T cells in PBMC; assay: CD69 expression on T cells after anti-CD3/CD28 activation of PBMC (flow cytometry); format: cell-based, human
Method: (§1) Human peripheral blood mononuclear cells (PBMC) were diluted 1:1 with fresh blood and normal saline (Meilun Biological MA0083) and then added flat to the upper layer of an equal volume of Histopaque®-1077 (Sigma10771) separation solution. The cells were centrifuged slowly for 30 min at 500 g at room temperature. After centrifugation, the white membrane layer between the plasma and the separation solution was imbibed and washed with normal saline. After repeated washing, the cells were resuspended with 10% FBS (Thermofisher 10099141C) RPMI (Corning10-040-CV) medium for later use.
(§2) The concentration of PBMC cells was adjusted to no more than 0.5 million/ml, and the final concentration of 1 μM FK866 (Selleck S2799), 100 μM NAD+ (Selleck S2518), or 1μM FK866, and 100 μM NAD+ were added respectively. The cells after drug addition were cultured in a cell incubator for 24 hours at 37° C., with 5% CO2.
Highly adsorbed 96-well plates were coated with CD28 (Biolegend 102112), and CD3 (Thermofisher 14-0037-82) antibodies at the final concentration of 0 or 3 μg/ml, the PBMC cells treated with the above different treatments were added to the well plates, respectively. After 24 h stimulation, the cells were collected for CD69 staining. […] After washing with Staining buffer, the cells were resuspended with staining buffer containing DAPI and then detected on BD LSRFortessa. […]

[2] = system: T cells in PBMC; assay: Intracellular tyrosine phosphorylation after anti-CD3/CD28 activation of PBMC (WB, 4G10 antibody); format: cell-based, human; settings: 1 μM FK866 24 h, then CD3/CD28 antibody stimulation 5 min, versus solvent
Method: as §1, §2
Highly adsorbed 96-well plates were coated with CD28 (Biolegend 102112), and CD3 (Thermofisher 14-0037-82) antibodies at the final concentration of 0 or 3 μg/ml, the PBMC cells treated with the above different treatments were added to the well plates, respectively. […] WB testing: after cell collection, the cells were lysed to extract proteins, which were then electrophoretically transferred and detected with 4G10 antibody (Millipore16-103) for anti-Phosphotyrosine testing. […]

[3] = system: K562-CD19-mCherry-luciferase cells; assay: Subcutaneous K562-CD19-mCherry-luciferase solid tumor model in NSG mice, in vivo imaging and survival; settings: NAM alone i.p. daily 100 μL at 1 g/ml in saline, versus saline, n=5
Method: In cells with K562-CD19-mCherry, as described previously, luciferase was then overexpressed through the lentiviral system. […] Since subcutaneously injected K562 cells also overexpressed Luciferase, intracellular fluorescence can be excited after intraperitoneal injection of the substrate luciferin (PerkinElmer 122799) in mice, and tumor growth in mice can be collected by in vivo imaging. Before CAR-T cells were injected into the tail vein of mice, the fluorescence signal intensity of mouse tumor cells was detected as the starting point, and then the fluorescence intensity of mouse tumor cells was detected every 7 days. For detection, the mice were intraperitoneally injected with 150 μL of D-luciferin potassium salt at a concentration of 10 mg/ml, and 10 minutes later, the fluorescence of tumor cells was detected using IVIS® LuminaIII small animal in vivo imaging system. The stronger the fluorescence, the more tumor cells and the faster the tumor growth.

Compound | CD69 on the surface of T cells ([1]; PBMC, 1 μM FK866 24 h, then CD3/CD28 antibody stimulation 24 h, versus solvent) | T cell activation ability ([1]; concluded from CD69 and phosphorylation levels when NAD+ synthesis was inhibited) | intracellular phosphorylation levels (tyrosine) [2] | effect on the fluorescence intensity and tumor growth of tumor cells [3]
O=C(/C=C/c1cccnc1)NCCCCC1CCN(C(=O)c2ccccc2)CC1 [FK866] | significantly reduced | significantly decreased | significantly reduced | 
NC(=O)c1cccnc1 [Nicotinamide (NAM), Nicotinamide] |  |  |  | no significant effect
